Results on four compounds are retold here after US6469004B1, “Benzoheterocycles and their uses as MEK inhibitors” (Warner-Lambert Company, priority 1999, dated 2002).

Structures can show the parent of a compound that is named as a salt. Where two headings read alike, the source gives them in different places.

For data set [1], the target named is GST-MEK (p45MEK) / GST-MAPK (p44MAP kinase) cascade (APK) (Homo sapiens, UniProt Q02750). Kind of data set: APK IC50 (cascade assay for inhibitors of the MAP kinase pathway). Format: biochemical. The protocol: Cascade Assay for Inhibitors of the MAP Kinase Pathway
Incorporation of ^32P into myelin basic protein (MBP) is assayed in the presence of a glutathione S-transferase fusion protein containing p44MAP kinase (GST-MAPK) and a glutathione S-transferase fusion protein containing p45MEK (GST-MEK). The assay solution contains 20 mM HEPES, pH 7.4, 10 mM MgCl2, 1 mM EGTA, 50 μM [γ-^32P]ATP, 10 μg GST-MEK, 0.5 μg GST-MAPK and 40 μg MBP in a final volume of 100 μL. Reactions are stopped after 20 minutes by addition of trichloroacetic acid and filtered through a GFIC filter mat. ^32P retained on the filter mat is determined using a 120S Betaplate. Compounds are assessed at 10 μM for ability to inhibit incorporation of 32P.
To ascertain whether compounds are inhibiting GST-MEK or GST MAPK, two additional protocols are employed. In the first protocol, compounds are added to tubes containing GST-MEK, followed by addition of GST-MAPK, MBP and [γ-^32P]ATP. In the second protocol, compounds are added to tubes containing both GST-MEK and GST-MAPK, followed by MBP and [γ-^32P]ATP.
Compounds that show activity in both protocols are scored as MAPK inhibitors, while compounds showing activity in only the first protocol are scored as MEK inhibitors.

Data set [2] concerns colon 26 cells. Put plainly: colon 26 cells IC50 (whole cell assay). Format: cell-based. To be noted: Mus musculus. How it is done:
Whole Cell MAP Kinase Assay
To determine if compounds block activation of MAP kinase in whole cells, the following protocol is used. Cells are plated in multi-well plates and grown to confluence. Cells are serum-deprived overnight. […] After a 5-minute treatment with the growth factor, cells are washed with PBS, and lysed in a buffer consisting of 70 mM NaCl, 10 mM HEPES (pH 7.4), 50 mM glycerol phosphate, and 1% Triton X-100. Lysates are clarified by centrifugation at 13,000×g for 10 minutes. Five to fifteen micrograms of protein from the resulting supernatants are subjected to SDS/PAGE and Western blotting for phosphorylated MAP kinase levels.

Chain of GST-MEK (p45MEK) / GST-MAPK (p44MAP kinase) cascade (APK) (Q02750 whole entry, the tested form may be a part): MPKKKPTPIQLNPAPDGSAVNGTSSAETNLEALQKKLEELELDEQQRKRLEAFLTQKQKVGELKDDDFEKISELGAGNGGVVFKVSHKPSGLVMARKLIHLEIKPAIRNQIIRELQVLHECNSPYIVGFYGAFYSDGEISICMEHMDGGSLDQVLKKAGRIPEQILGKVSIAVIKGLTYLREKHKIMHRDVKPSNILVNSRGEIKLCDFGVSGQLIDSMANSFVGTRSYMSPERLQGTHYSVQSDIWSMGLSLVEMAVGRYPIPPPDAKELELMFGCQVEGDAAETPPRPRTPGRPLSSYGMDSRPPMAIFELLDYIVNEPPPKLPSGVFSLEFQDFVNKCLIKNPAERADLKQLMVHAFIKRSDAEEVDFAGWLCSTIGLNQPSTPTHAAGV

Take `Cc1cc(I)ccc1Nc1c(C(=O)NOCC2CC2)cc2nc[nH]c2c1F` [PD 254552, 7-fluoro-6-(4-iodo-2-methyl-phenylamino)-1H-benzoimidazole-5-carboxylic acid cyclopropylmethoxy-amide]: the IC50 was under 10 nM in data set [1] and 20 nM in data set [2] (read-out: Colon 26 Cells, 1 Hour Pretreatment, IC50). As for `Cc1cc(I)ccc1Nc1c(C(=O)Oc2c(F)c(F)c(F)c(F)c2F)cc2nc[nH]c2c1F` [PD 254551, 7-fluoro-6-(4-iodo-2-methyl-phenylamino)-1H-benzoimidazole-5-carboxylic acid pentafluorophenyl ester], in data set [1], it took 120 nM to reach half-maximal inhibition (IC50). In turn, `Cc1cc(I)ccc1Nc1c(C(=O)NOCC2CC2)cc2nc[nH]c2c1F` (as salt: salt) [PD 254552, 7-fluoro-6-(4-iodo-2-methyl-phenylamino)-1H-benzoimidazole-5-carboxylic acid cyclopropylmethoxy-amide] registered a melting point of 168 to 172 °C. In the case of `Cc1cc(I)ccc1Nc1c(C(=O)O)cc2nc[nH]c2c1F` [PD 205293, 7-fluoro-6-(4-iodo-2-methyl-phenylamino)-1H-benzoimidazole-5-carboxylic acid], the melting point is 247 to 248 °C (dec.). Besides, in data set [2] (read-out: colon 26 cells, IC50), the IC50 was over 10000 nM.
